Assay results from paper PMC8019157 (Antiviral research, 2021).

Columns and labels:
SERCA1 [1] = target: T1, SERCA1 (Oryctolagus cuniculus, UniProt P04191); test: SERCA1 ATPase activity; assay type: biochemical, rabbit
[2] = EFV daily dose of up to 600 mg/day, cited from earlier work
[3] = target: rabbit skeletal muscle ryanodine receptor Ca^2+ release channel (RyR1) (Oryctolagus cuniculus, UniProt P11716); test: [^3H]ryanodine binding/displacement assay with SR membrane vesicles
[4] = system: C2C12 skeletal muscle myotubes; test: Live-cell Ca^2+ imaging; assay type: cell-based, Mouse
SERCA1 [5] = target: T1, SERCA1; test: ATP-dependent ^45Ca^2+ accumulation by longitudinal SR vesicles; assay type: biochemical, rabbit; details: 0 – 31.2 μM, 20 min at 37°C
RyR1 = RyR1 (Oryctolagus cuniculus, UniProt P11716); test: Lipid bilayer single channel recordings of purified RyR1; assay type: biochemical, rabbit; details: for increase in Po of RyR1 / Closed- maximally opened transitions (Hz) / Dwell time closed state / Dwell time open state / Po (+30 mV) / Close - maximally opened transitions (Hz): 3.0 μM cis Ca^2+
[6] = Drug dissolved in ethanol/water; assay type: physicochemical; details: room temperature (22 °C), HPLC
[7] = 6 μM, antiretroviral-naïve C2C12 myotubes
[8] = 3 μM, antiretroviral-naïve C2C12 cells

T1 sequence (P04191 1-994 isoform P04191-2): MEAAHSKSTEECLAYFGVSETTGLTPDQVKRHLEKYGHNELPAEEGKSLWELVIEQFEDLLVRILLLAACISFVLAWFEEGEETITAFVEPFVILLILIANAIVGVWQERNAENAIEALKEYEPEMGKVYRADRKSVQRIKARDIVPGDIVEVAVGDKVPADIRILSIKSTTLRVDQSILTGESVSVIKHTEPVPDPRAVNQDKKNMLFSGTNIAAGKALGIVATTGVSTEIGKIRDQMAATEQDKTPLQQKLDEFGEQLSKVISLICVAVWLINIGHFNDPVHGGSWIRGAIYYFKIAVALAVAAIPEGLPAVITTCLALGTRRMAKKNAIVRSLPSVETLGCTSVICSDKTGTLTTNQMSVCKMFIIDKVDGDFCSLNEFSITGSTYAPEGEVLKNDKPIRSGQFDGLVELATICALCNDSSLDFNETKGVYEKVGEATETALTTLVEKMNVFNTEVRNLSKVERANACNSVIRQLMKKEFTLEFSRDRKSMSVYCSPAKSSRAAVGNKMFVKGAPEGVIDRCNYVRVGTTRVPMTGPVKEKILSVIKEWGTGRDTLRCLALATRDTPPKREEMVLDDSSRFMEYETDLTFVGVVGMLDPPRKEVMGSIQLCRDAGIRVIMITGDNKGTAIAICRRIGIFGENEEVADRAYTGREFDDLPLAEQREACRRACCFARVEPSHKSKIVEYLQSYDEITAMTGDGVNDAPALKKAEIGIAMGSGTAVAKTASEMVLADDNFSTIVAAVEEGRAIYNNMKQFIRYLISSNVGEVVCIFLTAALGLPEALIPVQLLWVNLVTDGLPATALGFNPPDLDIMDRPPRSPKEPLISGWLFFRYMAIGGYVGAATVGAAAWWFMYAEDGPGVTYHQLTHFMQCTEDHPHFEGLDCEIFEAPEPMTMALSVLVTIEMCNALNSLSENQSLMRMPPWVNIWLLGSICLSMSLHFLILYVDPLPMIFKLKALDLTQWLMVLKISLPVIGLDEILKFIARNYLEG

## O=C1Nc2ccc(Cl)cc2[C@@](C#CC2CC2)(C(F)(F)F)O1 [EFV, efavirenz]
SERCA1 [1]; 0 – 20 μM, 20 min at 37°C, with and without A23187
  effect on ATPase activity of SERCA1: did not show any significant effect
[2]
  plasma Cmax: ~ 2.5 μg/ml
[2]; read-out: plasma Cmax
  Cmax: ~8 µM
[3]
  Hill slope of displacement curve: 1.6
[3]; 2 hr at 37°C
  concentrations that enhanced [^3H]ryanodine binding to RyR1: 1 to 10 nM
[4]
  Ca^2+ transient in C2C12 cells pretreated with 50 μM ryanodine for 20 min: attenuated Ca^2+ transient
[4]; 6 μM
  duration of the global Ca^2+ transient: about 90 sec
  effect on plasma membrane of C2C12 cells: blebbing
[4]; [7]
  mean peak amplitude of the Ca^2+ transient: 3.9 ± 0.3 f.u.
  rate of Ca^2+ rise: 0.14 ± 0.01 f.u./sec
  rate of Ca^2+ transient decay: 0.04 ± 0.00 f.u./sec
[4]; second dose 6 μM
  response to a second dose in previously exposed C2C12 cells: did not elicit a second Ca^2+ transient
SERCA1 [5]
  effect on ATP-dependent Ca^2+ transport by SERCA1: no effect
RyR1; 31.2 nM cis EFV (so in the source)
  time after which the channel went into an irreversible shut state: 90 s
RyR1; 240 nM cis EFV, within 15 sec
  increase in Po of RyR1: eight-fold
RyR1; 2.5 μM cis EFV
  conductance of reduced conductance state R1: 233 ± 15 pS
  reduced conductance state R1, current amplitude: 33 % of maximum
RyR1; 2.5 μM cis EFV, +30 mV
  duration of R1 state: ~ 375 msec
RyR1; 2.5 μM cis EFV, −30 mV
  duration of R1 state: ~ 125 msec
RyR1; 5.0 μM cis EFV
  conductance of reduced conductance state R2: 479 ± 24 pS
RyR1; Efavirenz 2.50 μM cis
  Closed- maximally opened transitions (Hz): 1122 ±22 Hz
  Dwell time closed state: 1.38 ± 0.08
  Dwell time open state: 0.74 ± 0.06
  Po (+30 mV): 0.22 ± 0.01
RyR1; Efavirenz 5.00 μM cis
  Closed- maximally opened transitions (Hz): 1046 ±30 Hz
  Dwell time closed state: 0.56 ± 0.07
  Dwell time open state: 1.01 ± 0.01
  Po (+30 mV): 0.59 ± 0.03
RyR1; Efavirenz 12.50 μM cis
  Closed- maximally opened transitions (Hz): 1005 ±16 Hz
  Dwell time closed state: 0.53 ± 0.46
  Dwell time open state: 1.03 ± 0.05
  Po (+30 mV): 0.69 ± 0.04
RyR1; Efavirenz 20.00 μM cis
  Closed- maximally opened transitions (Hz): 1060 ±25 Hz
  Dwell time closed state: 0.57 ± 0.06
  Dwell time open state: 0.99 ± 0.04
  Po (+30 mV): 0.67 ± 0.04
RyR1; Efavirenz 31.20 μM cis
  Closed- maximally opened transitions (Hz): 1064 ±25 Hz
  Dwell time closed state: 1.53 ± 0.02
  Dwell time open state: 0.73 ± 0.06
  Po (+30 mV): 0.38 ± 0.01
RyR1; Efavirenz […] cis
  Closed- maximally opened transitions (Hz): 1125 ±24 Hz
  Dwell time closed state: 4.91 ± 0.43
  Dwell time open state: 0.61 ± 0.07
  Po (+30 mV): 0.08 ± 0.01
RyR1; up to 5 minutes after cis addition
  effect on Po of RyR1 of concentrations lower than 240 nM: no effect
[6]
  fraction dissolved in ethanol/water (1:1): 6.3%
  stock concentration in ethanol/water (1:1): 1.8 mM

## CC(C)c1nc(CN(C)C(=O)N[C@H](C(=O)N[C@@H](Cc2ccccc2)C[C@H](O)[C@H](Cc2ccccc2)NC(=O)OCc2cncs2)C(C)C)cs1 [RTV, ritonavir]
SERCA1 [1]; 0.25 to 20 μM, presence or absence of A23187
  effect on ATPase activity of SERCA1: dose-dependently decreased
[3]; 6.7 nM [^3H]ryanodine, 2 hr at 37°C
  maximum percent enhancement of [^3H]ryanodine binding over control: 62.3 ± 6.2%
[3]; 2 hr at 37°C
  concentrations that enhanced [^3H]ryanodine binding to RyR1: 1 to 60 nM
[4]
  Ca^2+ transient in C2C12 cells pretreated with 50 μM ryanodine for 20 min: attenuated the amplitude
[4]; 3 μM
  duration of the Ca^2+ transient: about 20 sec
  effect on plasma membrane of C2C12 cells: blebbing
  rate of decay of the Ca^2+ transient, times faster than that of EFV: 3 x
[4]; [8]
  mean rate of Ca^2+ rise: 0.54 ± 0.06 f.u./sec
  peak amplitude of the Ca^2+ transient: 4.3 ± 0.2 f.u
[4]; second dose 3 μM
  response to a second dose in previously exposed C2C12 cells: triggered a second Ca^2+ transient
SERCA1 [5]
  effect on ATP-dependent Ca^2+ transport by SERCA1: dose-dependently inhibited
RyR1; 720 nM cis RTV
  increase in Po of RyR1: three-fold
RyR1; 3.2 μM cis RTV
  Po of RyR1: 0.15 ± 0.02
  conductance of reduced conductance state R’2: 599 ± 24 pS
  current amplitude of RyR1 (R’2): 84 % of maximum
  reduction of current amplitude of RyR1: 16%
RyR1; 31.2 μM cis RTV
  current amplitude of RyR1 (R’2): 84 % of maximum
RyR1; 31.2 μM cis RTV, +30 mV
  Po of RyR1: 0.92 ± 0.01
RyR1; Ritonavir 2.50 μM cis
  Close - maximally opened transitions (Hz): 998 ± 89 Hz
  Dwell time closed state: 1.01 ± 0.22 ms
  Dwell time open state: 0.68 ± 0.06 ms
  Po (+30 mV): 0.29 ± 0.03
RyR1; Ritonavir 5.00 μM cis
  Close - maximally opened transitions (Hz): 762 ± 45 Hz
  Dwell time open state: 1.22 ± 0.15 ms
  Po (+30 mV): 0.07 ± 0.04
RyR1; Ritonavir 12.50 μM cis
  Close - maximally opened transitions (Hz): 828 ± 40 Hz
  Dwell time open state: 1.64 ± 0.03 ms
  Po (+30 mV): 0.11 ± 0.03
RyR1; Ritonavir 20.00 μM cis
  Close - maximally opened transitions (Hz): 848 ± 37 Hz
  Dwell time closed state: 10.57 ± 1.24 ms
  Dwell time open state: 1.01 ± 0.06 ms
  Po (+30 mV): 0.11 ± 0.02
RyR1; Ritonavir 31.20 μM cis
  Close - maximally opened transitions (Hz): 880 ± 30 Hz
  Dwell time closed state: 0.72 ± 0.09 ms
  Dwell time open state: 1.13 ± 0.09 ms
  Po (+30 mV): 0.92 ± 0.01
RyR1; Ritonavir […] cis
  Close - maximally opened transitions (Hz): 773 ± 47 Hz
  Dwell time closed state: 4.25 ± 0.11 ms
  Dwell time open state: 0.35 ± 0.02 ms
  Po (+30 mV): 0.07 ± 0.01
RyR1; up to five minutes after addition
  effect on Po of RyR1 of concentrations lower than 720 nM: did not elicit changes in the Po
[6]
  fraction dissolved in ethanol/water (1:1): 1.5%
  stock concentration in ethanol/water (1:1): 0.39 mM
